Assays:
[1] = biological target: T1, Human orexin receptor type 2 (Homo sapiens, UniProt O43614); assay: Test Example 1: agonist activity for orexin receptor type 2 (aequorin luminescence, intracellular calcium mobilization in CHO cells); format: cell-based; conditions: compound 10 μM; relative percentage of luminescence for the luminescence (100%) of Orexin A (100 μM); CHO cells transiently expressing human orexin receptor type 2 and apoaequorin
T1 construct: expressed in transfected cells; host or cells: CHO cells (transient expression, with apoaequorin)
T1 sequence (O43614 1-444): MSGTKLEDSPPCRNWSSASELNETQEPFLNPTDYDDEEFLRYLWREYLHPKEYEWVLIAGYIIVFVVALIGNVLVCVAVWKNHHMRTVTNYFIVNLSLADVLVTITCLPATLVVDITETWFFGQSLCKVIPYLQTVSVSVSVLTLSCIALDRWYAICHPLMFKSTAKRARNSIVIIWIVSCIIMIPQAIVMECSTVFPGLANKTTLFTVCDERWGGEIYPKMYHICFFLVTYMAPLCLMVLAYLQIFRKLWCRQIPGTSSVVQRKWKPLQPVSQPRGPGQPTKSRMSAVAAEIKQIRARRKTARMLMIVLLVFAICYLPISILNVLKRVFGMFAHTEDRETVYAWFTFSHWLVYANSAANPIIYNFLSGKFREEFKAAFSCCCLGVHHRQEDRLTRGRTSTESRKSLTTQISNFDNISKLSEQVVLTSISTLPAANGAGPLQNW
Experimental: Test Example 1: Measurement of Agonist Activity for Orexin Receptor Type 2
(§1) Human orexin receptor type 2 and apoaequorin were transiently expressed in CHO cells, and the agonist activity was evaluated based on intracellular calcium mobilization with ligand stimulation. The CHO cells transiently-expressed human orexin receptor type 2 and apoaequorin were seeded on a 384-well plate by 2,000 cells/well, and then incubated for 16-22 hours. After the plate was returned to room temperature, Coelenterazine hcp (final concentration: 1 μM) was added to the plate, and the plate was allowed to stand at room temperature for 2 hours. And then, Orexin A or each test compound was added to the plate, and the luminescence of the cells was measured with FDSS7000 (Hamamatsu Photonics K.K.), wherein Orexin A and each test compound were dissolved in DMSO (final concentration: 0.1%), and diluted with a buffer (Hanks, 20 mM HEPES, 0.1% BSA). The agonist activity of each test compound for orexin receptor type 2 was calculated as relative percentage of luminescence for the luminescence (100%) of Orexin A (100 μM).
(§2) Each agonist activity of the compounds obtained in Examples (10 μM) for orexin receptor type 2 is shown in the table below as relative percentage of luminescence for the luminescence (100%) of Orexin A (100 μM).

[2] = biological target: T1, Human orexin receptor type 2; assay: Test Example 2: agonist activity for orexin receptor type 2 (aequorin luminescence, intracellular calcium mobilization in CHO cells); format: cell-based; conditions: compound 10 μM; relative percentage of luminescence for the luminescence (100%) of Orexin A (100 μM); CHO cells transiently expressing human orexin receptor type 2 and apoaequorin
Experimental: Test Example 2: Measurement of Agonist Activity for Orexin Receptor Type 2
as §1, with “Orexin A (PEPTIDE INSTITUTE, INC., Lot. 711101) or each” for “Orexin A or each”
as §2

Row | Agonist Activity (%) [1] [%] | Agonist Activity (%) [2] [%] | SMILES
1 | 477 |  | CC(C)N1CCN([C@H]2CCCC(F)(F)[C@@H]2NC(=O)N2C[C@@H]3CN(c4ccccc4)C[C@@H]3C2)CC1 [Example 11, (3aR,6aS)—N-{(1R,6S)-2,2-difluoro-6-[4-(propan-2-yl)piperazin-1-yl]cyclohexyl}-5-phenylhexahydropyrrolo[3,4-c]pyrrole-2(1H)-carboxamide]
2 |  | 390 | CC(C)N1CCN([C@H]2CCCC(F)(F)[C@@H]2NC(=O)N2C[C@@H]3CN(c4ccccc4F)C[C@@H]3C2)CC1 [Example 19, (3aR,6aS)—N-{(1R,6S)-2,2-difluoro-6-[4-(propan-2-yl)piperazin-1-yl]cyclohexyl}-5-(2-fluorophenyl)hexahydropyrrolo[3,4-c]pyrrole-2(1H)-carboxamide]
3 | 511 |  | CC(C)N1CCN([C@H]2CCCC(F)(F)[C@@H]2NC(=O)N2C[C@H]3C[C@@H](c4ccc(F)cc4)C[C@H]3C2)CC1 [Example 15, (3aR,5R,6aS)—N-{(1R,6S)-2,2-difluoro-6-[4-(propan-2-yl)piperazin-1-yl]cyclohexyl}-5-(4-fluorophenyl)hexahydropenta[c]pyrrole-2(1H)-carboxamide]
4 | 446 |  | Cc1ccccc1[C@@H]1C[C@@H]2CN(C(=O)N[C@@H]3[C@@H](N4CCN(C(C)C)CC4)CCCC3(F)F)C[C@@H]2C1 [Example 14, (3aR,5R,6aS)—N-{(1R,6S)-2,2-difluoro-6-[4-(propan-2-yl)piperazin-1-yl]cyclohexyl}-5-(2-methylphenyl)hexahydropenta[c]pyrrole-2(1H)-carboxamide]
5 | 466 |  | Cc1ccc([C@@H]2C[C@@H]3CN(C(=O)N[C@@H]4[C@@H](N5CCN(C(C)C)CC5)CCCC4(F)F)C[C@@H]3C2)cc1 [Example 13, (3aR,5R,6aS)—N-{(1R,6S)-2,2-difluoro-6-[4-(propan-2-yl)piperazin-1-yl]cyclohexyl}-5-(4-methylphenyl)hexahydropenta[c]pyrrole-2(1H)-carboxamide]
6 |  | 341 | CC(C)N1CC[C@H](N(C)[C@H]2CCCC(F)(F)[C@@H]2NC(=O)N2C[C@@H]3CN(c4ccccc4)C[C@@H]3C2)C1 [Example 34, (3aR,6aS)—N-[(1R,6S)-2,2-difluoro-6-{methyl[(3S)-1-(propan-2-yl)pyrrolidin-3-yl]amino}cyclohexyl]-5-phenylhexahydropyrrolo[3,4-c]pyrrole-2(1H)-carboxamide]
7 |  | 345 | CC(C)N1CCN([C@H]2CCCC(F)(F)[C@@H]2NC(=O)N2C[C@H]3C[C@@H](c4ncccn4)C[C@H]3C2)CC1 [Example 26, (3aR,5R,6aS)—N-{(1R,6S)-2,2-difluoro-6-[4-(propan-2-yl)piperazin-1-yl]cyclohexyl}-5-(pyrimidin-2-yl)hexahydropenta[c]pyrrole-2(1H)-carboxamide]
8 | 491 |  | CC(C)N1CCN([C@H]2CCCC(F)(F)[C@@H]2NC(=O)N2C[C@H]3C[C@@H](c4cccc(F)c4)C[C@H]3C2)CC1 [Example 16, (3aR,5R,6aS)—N-{(1R,6S)-2,2-difluoro-6-[4-(propan-2-yl)piperazin-1-yl]cyclohexyl}-5-(3-fluorophenyl)hexahydropenta[c]pyrrole-2(1H)-carboxamide]
9 | 450 |  | CC(C)N1CCN([C@H]2CCCC(F)(F)[C@@H]2NC(=O)N2C[C@H]3CC(c4ccccc4)=C[C@H]3C2)CC1 [Example 10]
10 | 424 |  | CC(C)N1CCN([C@H]2CCCC(F)(F)[C@@H]2NC(=O)N2C[C@H]3C[C@@H](c4ccccc4)C[C@H]3C2)CC1 [Example 9, (3aR,5R,6aS)—N-{(1R,6S)-2,2-difluoro-6-[4-(propan-2-yl)piperazin-1-yl]cyclohexyl}-5-phenylhexahydropenta[c]pyrrole-2(1H)-carboxamide]
11 | 492 |  | CC(C)N1CCN([C@H]2CCCC(F)(F)[C@@H]2NC(=O)N2C[C@H]3CC(c4ccccc4)C[C@H]3C2)CC1 (stereo partly drawn) [Example 12, (3aR,5S,6aS)—N-{(1R,6S)-2,2-difluoro-6-[4-(propan-2-yl)piperazin-1-yl]cyclohexyl}-5-phenylhexahydropenta[c]pyrrole-2(1H)-carboxamide]

Further lines, the compound ahead of its results:

Row | SMILES | Agonist Activity (%) [1] [%] | Agonist Activity (%) [2] [%]
12 | CC(C)N1CCN([C@H]2CCCC(F)(F)[C@@H]2NC(=O)N2C[C@@H]3C[C@](C)(c4noc(C5CC5)n4)C[C@@H]3C2)CC1 [Example 6, (3aR,5R,6aS)-5-(5-cyclopropyl-1,2,4-oxadiazol-3-yl)-N-{(1R,6S)-2,2-difluoro-6-[4-(propan-2-yl)piperazin-1-yl]cyclohexyl}-5-methylhexahydropenta[c]pyrrole-2(1H)-carboxamide] | 282 | 
13 | CC(C)N1CCN([C@H]2CCCC(F)(F)[C@@H]2NC(=O)N2C[C@@H]3[C@H](C2)[C@H]3c2noc(C3CC3)n2)CC1 [Example 3, (1R,5S,6R)-6-(5-cyclopropyl-1,2,4-oxadiazol-3-yl)-N-{(1R,6S)-2,2-difluoro-6-[4-(propan-2-yl)piperazin-1-yl]cyclohexyl}-3-azabicyclo[3.1.0]hexane-3-carboxamide] | 217 | 
14 | CC(C)N1CCN([C@H]2CCCC(F)(F)[C@@H]2NC(=O)N2C[C@@H]3C[C@](C)(c4noc([C@@H]5C[C@@H]5F)n4)C[C@@H]3C2)CC1 [Example 7, (3aR,5R,6aS)—N-{(1R,6S)-2,2-difluoro-6-[4-(propan-2-yl)piperazin-1-yl]cyclohexyl}-5-{5-[(1S,2S)-2-fluorocyclopropyl]-1,2,4-oxadiazol-3-yl}-5-methylhexahydropenta[c]pyrrole-2(1H)-carboxamide] | 328 | 
15 | CC(C)N1CCN([C@H]2CCCC(F)(F)[C@@H]2NC(=O)N2C[C@@H]3[C@H](C2)[C@@H]3c2noc(C3CC3)n2)CC1 [Example 4, (1R,5S,6S)-6-(5-cyclopropyl-1,2,4-oxadiazol-3-yl)-N-{(1R,6S)-2,2-difluoro-6-[4-(propan-2-yl)piperazin-1-yl]cyclohexyl}-3-azabicyclo[3.1.0]hexane-3-carboxamide] | 15 | 
16 | CC(C)N1CCN([C@H]2CCCC(F)(F)[C@@H]2NC(=O)N2C[C@H]3C[C@H](c4noc(C5CC5)n4)C[C@H]3C2)CC1 [Example 1, (3aR,5S,6aS)-5-(5-Cyclopropyl-1,2,4-oxadiazol-3-yl)-N-{(1R,6S)-2,2-difluoro-6-[4-(propan-2-yl)piperazin-1-yl]cyclohexyl}hexahydropenta[c]pyrrole-2(1H)-carboxamide] | 375 | 
17 | CC(C)N1CCN([C@H]2CCCC(F)(F)[C@@H]2NC(=O)N2C[C@H]3C[C@H](c4noc([C@@H]5C[C@@H]5F)n4)C[C@H]3C2)CC1 [Example 2, (3aR,5S,6aS)—N-{(1R,6S)-2,2-difluoro-6-[4-(propan-2-yl)piperazin-1-yl]cyclohexyl}-5-{5-[(1S,2S)-2-fluorocyclopropyl]-1,2,4-oxadiazol-3-yl}hexahydropenta[c]pyrrole-2(1H)-carboxamide] | 275 | 
18 | CC(C)N1CCN([C@H]2CCCC(F)(F)[C@@H]2NC(=O)N2C[C@H]3C[C@@H](c4ccccc4F)C[C@H]3C2)CC1 [Example 17, (3aR,5R,6aS)—N-{(1R,6S)-2,2-difluoro-6-[4-(propan-2-yl)piperazin-1-yl]cyclohexyl}-5-(2-fluorophenyl)hexahydropenta[c]pyrrole-2(1H)-carboxamide] | 315 | 
19 | CC(C)N1CCN([C@H]2CCCC(F)(F)[C@@H]2NC(=O)N2C[C@H]3C[C@@H](c4noc(C5CC5)n4)C[C@H]3C2)CC1 [Example 8, (3aR,5R,6aS)-5-(5-cyclopropyl-1,2,4-oxadiazol-3-yl)-N-{(1R,6S)-2,2-difluoro-6-[4-(propan-2-yl)piperazin-1-yl]cyclohexyl}hexahydropenta[c]pyrrole-2(1H)-carboxamide] | 423 | 
20 | CC(C)N1CCN([C@H]2CCCC(F)(F)[C@@H]2NC(=O)N2CC[C@H]3C[C@H](c4noc(C5CC5)n4)[C@H]3C2)CC1 [Example 5] | 79 | 

From patent US20260265235A1, “BICYCLOAMINE CARBOXAMIDE DERIVATIVE” (Sumitomo Pharma Co., Ltd., priority 2022, published 2026)
